Earlier results as cited in patent publication US11771690B2, “Solid particle, preparation method therefor, and pharmaceutical composition containing solid particle” (SHANGHAI WD PHARMACEUTICAL CO., LTD, priority 2018, dated 2023).

Compound: C[C@]12C=CC(=O)N[C@@H]1CC[C@@H]1[C@@H]2CC[C@]2(C)[C@@H](C(=O)Nc3cc(C(F)(F)F)ccc3C(F)(F)F)CC[C@@H]12 [Dutasteride, (5α,17β)-N-{2,5-bis(trifluoromethyl)phenyl}-3-oxo-4-azaandrost-1-ene-17-carboxamide]
- solubility in water: insoluble
